Here are results for five compounds from patent US20160106814A1, “Novel Oral Pharmaceutical Composition for Treatment of Diabetes” (NOVO NORDISK A/S, priority 2013, published 2016).

As a reminder, the Papp A→B is the apparent permeability from the apical to the basolateral side of a cell layer.

*1 amine or outer side, *2 acyl side, *3 side chain or, on linkers, in order; H or OH if unused. Where a SMILES comes first, the peptide text is derived from it. Side-chain parts run from the residue outwards. [ ]: non-standard residue; d: D form. The star is where a group is joined. Decanoyl(10-(4-HOOC-PhO)) = O=C(O)c1ccc(OCCCCCCCCCC(=O)*)cc1; γGlu = O=C(O)[C@H](CCC(=O)[*:2])N[*:1]; C14 diacid = O=C(O)CCCCCCCCCCCCC(=O)*; AEEA = NCCOCCOCC(=O)O; Aib = CC(C)(N)C(=O)O

The series in a line: Transport of GLP-1 peptide across mucus-producing E12 cell monolayers in the presence of sodium caprate and BBI. Format: in vitro ADME. Particulars: pH 7.4, apical to basolateral. The method, then: Buffer was then removed and the experiment initiated. […] Receiver samples (200 μl) were taken every 15 min.
In all samples with GLP-1 peptide and mannitol, the concentration of GLP-1 peptide was determined using a LOCI assay (or LC-MS assay) and scintillation counter, respectively.

Where [1] appears, read: 100 μM GLP-1 peptide + 13 mM sodium caprate + 0.2% BBI.
The mark [2] stands for this setting: 100 μM GLP-1 peptide + 13 mM sodium caprate, without BBI.

Take `CC[C@H](C)[C@H](NC(=O)[C@H](Cc1ccccc1)NC(=O)[C@H](CCC(=O)O)NC(=O)[C@H](CCCCNC(=O)COCCOCCNC(=O)COCCOCCNC(=O)CC[C@H](NC(=O)CCCCCCCCCOc1ccc(C(=O)O)cc1)C(=O)O)NC(=O)[C@H](C)NC(=O)[C@H](C)NC(=O)[C@H](CCC(N)=O)NC(=O)[C@H](CCC(=O)O)NC(=O)[C@H](CCC(=O)O)NC(=O)[C@H](CC(C)C)NC(=O)[C@H](Cc1ccc(O)cc1)NC(=O)[C@H](CCCCNC(=O)COCCOCCNC(=O)COCCOCCNC(=O)CC[C@H](NC(=O)CCCCCCCCCOc1ccc(C(=O)O)cc1)C(=O)O)NC(=O)[C@H](CO)NC(=O)[C@@H](NC(=O)[C@H](CC(=O)O)NC(=O)[C@H](CO)NC(=O)[C@@H](NC(=O)[C@H](Cc1ccccc1)NC(=O)[C@@H](NC(=O)CNC(=O)[C@H](CCC(=O)O)NC(=O)C(C)(C)NC(=O)[C@@H](N)Cc1c[nH]cn1)[C@@H](C)O)[C@@H](C)O)C(C)C)C(=O)N[C@@H](C)C(=O)N[C@@H](Cc1c[nH]c2ccccc12)C(=O)N[C@@H](CC(C)C)C(=O)N[C@H](C(=O)N[C@@H](CCC(N)=O)C(=O)NCC(=O)N[C@@H](CCCNC(=N)N)C(=O)NCC(=O)O)C(C)C` [GLP-1 peptide 2, N{Epsilon-18}-[2-[2-[2-[[2-[2-[2-[[(4S)-4-carboxy-4-[10-(4-carboxyphenoxy)-decanoylamino]butanoyl]amino]ethoxy]ethoxy]acetyl]amino]ethoxy]ethoxy]acetyl], N{Epsilon-26}-[2-[2-[2-[[2-[2-[2-[[(4S)-4-carboxy-4-[10-(4-carboxyphenoxy)decanoylamino]butanoyl]-amino]ethoxy]ethoxy]acetyl]amino]ethoxy]ethoxy]acetyl]-[Aib8,Lys18,Glu22,Gln34]-GLP-1-(7-37)-peptide]: the apical-to-basolateral permeability (Papp A→B) under setting [1] worked out at 0.438 ×10⁻⁶ cm/s and the Papp A→B under setting [2] turned out to be 0.389 ×10⁻⁶ cm/s.
For `CC[C@H](C)[C@H](NC(=O)[C@H](Cc1ccccc1)NC(=O)[C@H](CCC(=O)O)NC(=O)[C@H](CCCCNC(=O)COCCOCCNC(=O)COCCOCCNC(=O)CC[C@H](NC(=O)CCCCCCCCCOc1ccc(C(=O)O)cc1)C(=O)O)NC(=O)[C@H](C)NC(=O)[C@H](C)NC(=O)[C@H](CCC(N)=O)NC(=O)[C@H](CCC(=O)O)NC(=O)[C@H](CCC(=O)O)NC(=O)[C@H](CC(C)C)NC(=O)[C@H](Cc1ccc(O)cc1)NC(=O)[C@H](CCCCNC(=O)COCCOCCNC(=O)COCCOCCNC(=O)CC[C@H](NC(=O)CCCCCCCCCOc1ccc(C(=O)O)cc1)C(=O)O)NC(=O)[C@H](CO)NC(=O)[C@@H](NC(=O)[C@H](CC(=O)O)NC(=O)[C@H](CO)NC(=O)[C@@H](NC(=O)[C@H](Cc1ccccc1)NC(=O)[C@@H](NC(=O)CNC(=O)[C@H](CCC(=O)O)NC(=O)C(C)(C)NC(=O)[C@@H](N)Cc1c[nH]cn1)[C@@H](C)O)[C@@H](C)O)C(C)C)C(=O)N[C@@H](C)C(=O)N[C@@H](Cc1c[nH]c2ccccc12)C(=O)N[C@@H](CC(C)C)C(=O)N[C@H](C(=O)N[C@@H](CCCNC(=N)N)C(=O)NCC(=O)N[C@@H](CCCNC(=N)N)C(=O)NCC(=O)O)C(C)C` [GLP-1 peptide 4, N{Epsilon-18}-[2-[2-[2-[[2-[2-[2-[[(4S)-4-carboxy-4-[10-(4-carboxyphenoxy)-decanoylamino]butanoyl]amino]ethoxy]ethoxy]acetyl]amino]ethoxy]ethoxy]acetyl], N{Epsilon-26}-[2-[2-[2-[[2-[2-[2-[[(4S)-4-carboxy-4-[10-(4-carboxyphenoxy)decanoylamino]butanoyl]-amino]ethoxy]ethoxy]acetyl]amino]ethoxy]ethoxy]acetyl]-[Aib8,Lys18,Glu22,Arg34]-GLP-1-(7-37)-peptide] (H-H[Aib]EGTFTSDVSK([AEEA-AEEA-γGlu-Decanoyl(10-(4-HOOC-PhO))])YLEEQAAK([AEEA-AEEA-γGlu-Decanoyl(10-(4-HOOC-PhO))])EFIAWLVRGRG-OH), in that order: 0.529 ×10⁻⁶ cm/s and 0.204 ×10⁻⁶ cm/s.
For `CC[C@H](C)[C@H](NC(=O)[C@H](Cc1ccccc1)NC(=O)[C@H](CCC(=O)O)NC(=O)[C@H](CCCCNC(=O)COCCOCCNC(=O)COCCOCCNC(=O)CC[C@H](NC(=O)CCCCCCCCCCCCC(=O)O)C(=O)O)NC(=O)[C@H](C)NC(=O)[C@H](C)NC(=O)[C@H](CCC(N)=O)NC(=O)[C@H](CCC(=O)O)NC(=O)[C@H](CCC(=O)O)NC(=O)[C@H](CC(C)C)NC(=O)[C@H](Cc1ccc(O)cc1)NC(=O)[C@H](CCCCNC(=O)COCCOCCNC(=O)COCCOCCNC(=O)CC[C@H](NC(=O)CCCCCCCCCCCCC(=O)O)C(=O)O)NC(=O)[C@H](CO)NC(=O)[C@@H](NC(=O)[C@H](CC(=O)O)NC(=O)[C@H](CO)NC(=O)[C@@H](NC(=O)[C@H](Cc1ccccc1)NC(=O)[C@@H](NC(=O)CNC(=O)[C@H](CCC(=O)O)NC(=O)C(C)(C)NC(=O)[C@@H](N)Cc1c[nH]cn1)[C@@H](C)O)[C@@H](C)O)C(C)C)C(=O)N[C@@H](C)C(=O)N[C@@H](Cc1c[nH]c2ccccc12)C(=O)N[C@@H](CC(C)C)C(=O)N[C@H](C(=O)N[C@@H](CCCNC(=N)N)C(=O)NCC(=O)N[C@@H](CCCNC(=N)N)C(=O)NCC(=O)O)C(C)C` [GLP-1 peptide 5, N{Epsilon-18}-[2-[2-[2-[[2-[2-[2-[[(4S)-4-carboxy-4-(13-carboxytridecanoylamino)butanoyl]amino]ethoxy]ethoxy]acetyl]amino]ethoxy]ethoxy]acetyl], —N{Epsilon-26}-[2-[2-[2-[[2-[2-[2-[[(4S)-4-carboxy-4-(13-carboxytridecanoylamino)butanoyl]-amino]ethoxy]ethoxy]acetyl]amino]ethoxy]ethoxy]acetyl]-[Aib8,Lys18,Glu22,Arg34]-GLP-1-(7-37)-peptide] (H-H[Aib]EGTFTSDVSK([AEEA-AEEA-γGlu-C14 diacid])YLEEQAAK([AEEA-AEEA-γGlu-C14 diacid])EFIAWLVRGRG-OH) the same measures were 0.592 ×10⁻⁶ cm/s and 0.314 ×10⁻⁶ cm/s.
`CC[C@H](C)[C@H](NC(=O)[C@H](Cc1ccccc1)NC(=O)[C@H](CCC(=O)O)NC(=O)[C@H](CCCCNC(=O)COCCOCCNC(=O)COCCOCCNC(=O)CC[C@H](NC(=O)CCCCCCCCCOc1ccc(C(=O)O)cc1)C(=O)O)NC(=O)[C@H](C)NC(=O)[C@H](C)NC(=O)[C@H](CCC(N)=O)NC(=O)CNC(=O)[C@H](CCC(=O)O)NC(=O)[C@H](CC(C)C)NC(=O)[C@H](Cc1ccc(O)cc1)NC(=O)[C@H](CCCCNC(=O)COCCOCCNC(=O)COCCOCCNC(=O)CC[C@H](NC(=O)CCCCCCCCCOc1ccc(C(=O)O)cc1)C(=O)O)NC(=O)[C@H](CO)NC(=O)[C@@H](NC(=O)[C@H](CC(=O)O)NC(=O)[C@H](CO)NC(=O)[C@@H](NC(=O)[C@H](Cc1ccccc1)NC(=O)[C@@H](NC(=O)CNC(=O)[C@H](CCC(=O)O)NC(=O)C(C)(C)NC(=O)[C@@H](N)Cc1c[nH]cn1)[C@@H](C)O)[C@@H](C)O)C(C)C)C(=O)N[C@@H](C)C(=O)N[C@@H](Cc1c[nH]c2ccccc12)C(=O)N[C@@H](CC(C)C)C(=O)N[C@H](C(=O)N[C@@H](CCC(N)=O)C(=O)NCC(=O)N[C@@H](CCCNC(=N)N)C(=O)NCC(=O)O)C(C)C` [GLP-1 peptide 6, N{Epsilon-18}-[2-[2-[2-[[2-[2-[2-[[(4S)-4-carboxy-4-[10-(4-carboxyphenoxy)-decanoylamino]butanoyl]amino]ethoxy]ethoxy]acetyl]amino]ethoxy]ethoxy]acetyl], N{Epsilon-26}-[2-[2-[2-[[2-[2-[2-[[(4S)-4-carboxy-4-[10-(4-carboxyphenoxy)decanoylamino]butanoyl]-amino]ethoxy]ethoxy]acetyl]amino]ethoxy]ethoxy]acetyl]-[Aib8,Lys18,Gln34]-GLP-1-(7-37)-peptide]: the Papp A→B is, setting by setting: under setting [1], 0.296 ×10⁻⁶ cm/s; under setting [2], 0.159 ×10⁻⁶ cm/s.
`CC[C@H](C)[C@H](NC(=O)[C@H](Cc1ccccc1)NC(=O)[C@H](CCC(=O)O)NC(=O)[C@H](CCCCNC(=O)COCCOCCNC(=O)COCCOCCNC(=O)CC[C@H](NC(=O)CCCCCCCCCCCCCCCCC(=O)O)C(=O)O)NC(=O)[C@H](C)NC(=O)[C@H](C)NC(=O)[C@H](CCC(N)=O)NC(=O)CNC(=O)[C@H](CCC(=O)O)NC(=O)[C@H](CC(C)C)NC(=O)[C@H](Cc1ccc(O)cc1)NC(=O)[C@H](CO)NC(=O)[C@H](CO)NC(=O)[C@@H](NC(=O)[C@H](CC(=O)O)NC(=O)[C@H](CO)NC(=O)[C@@H](NC(=O)[C@H](Cc1ccccc1)NC(=O)[C@@H](NC(=O)CNC(=O)[C@H](CCC(=O)O)NC(=O)C(C)(C)NC(=O)[C@@H](N)Cc1c[nH]cn1)[C@@H](C)O)[C@@H](C)O)C(C)C)C(=O)N[C@@H](C)C(=O)N[C@@H](Cc1c[nH]cn1)C(=O)N[C@@H](CC(C)C)C(=O)N[C@H](C(=O)N[C@@H](CCC(N)=O)C(=O)NCC(=O)N[C@@H](CCCNC(=N)N)C(=O)NCC(=O)O)C(C)C` [GLP-1 peptide 8, N{Epsilon-26}-[2-[2-[2-[[2-[2-[2-[[(4S)-4-carboxy-4-(17-carboxy-heptadecanoylamino)butanoyl]amino]ethoxy]ethoxy]acetyl]amino]ethoxy]ethoxy]acetyl]-[Aib8,His31,Gln34]-GLP-1-(7-37)-peptide]: the Papp A→B was determined as 0.363 ×10⁻⁶ cm/s under setting [1] and 0.184 ×10⁻⁶ cm/s under setting [2].
